For this assay, the target named is human IDO1 (Homo sapiens, UniProt P14902). In words: Assessment of human IDO-1 inhibitory activity in Hela cells (Interferon-gamma stimulated HeLa cells, Ehrlich reagent, absorbance 490 nm). Details: endogenous in cells; host or cells: HeLa cells stimulated with interferon-gamma. To be noted: Hela Human IDO-1 cellular assay. Format: cell-based. The method in brief: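 IDO activity induced by 18 h IFN-γ (human 10 ng/ml or murine 5 ng/ml, final) after 1 h compound pre-treatment of HeLa cells at 37 °C. Supernatant kynurenine detected via Ehrlich reagent absorbance at 490 nm following 3% TCA at 50 °C; IC50 set against no-IFN-γ and untreated-stimulated controls.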

pIC50: −log10 of the molar value.

human IDO1, sequence (P14902 whole entry): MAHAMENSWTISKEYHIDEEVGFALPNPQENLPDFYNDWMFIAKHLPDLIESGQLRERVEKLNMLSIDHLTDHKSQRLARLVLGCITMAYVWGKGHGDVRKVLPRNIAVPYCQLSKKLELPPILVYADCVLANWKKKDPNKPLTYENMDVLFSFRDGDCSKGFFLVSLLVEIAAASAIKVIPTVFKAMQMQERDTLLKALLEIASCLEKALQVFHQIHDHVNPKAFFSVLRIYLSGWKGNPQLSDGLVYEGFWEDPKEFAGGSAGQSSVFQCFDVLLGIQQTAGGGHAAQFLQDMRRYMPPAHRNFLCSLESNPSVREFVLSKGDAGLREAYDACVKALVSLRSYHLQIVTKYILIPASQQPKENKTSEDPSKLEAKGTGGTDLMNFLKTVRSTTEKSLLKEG

As to `CCN(c1ccc(C(CC(=O)O)C2CC2)cc1Nc1ccc(OC)nc1)C1CCS(=O)(=O)CC1` (single isomer, unassigned) [Example 342, 3-cyclopropyl-3-(4-((1,1-dioxidotetrahydro-2H-thiopyran-4-yl)(ethyl)amino)-3-((6-methoxypyridin-3-yl)amino)phenyl)propanoic acid], the pIC50 – broadly, the IC50 on a negative log10 scale, so that one unit is a factor of ten – is over 7.30. With `CCN(c1ccc(C(CC(=O)O)C2CC2)cc1Nc1ccc(F)cc1)C1CCS(=O)(=O)CC1` (single isomer, unassigned) [Example 343, 3-cyclopropyl-3-(4-((1,1-dioxidotetrahydro-2H-thiopyran-4-yl)(ethyl)amino)-3-((4-fluorophenyl)amino)phenyl) propanoic acid] the figure was over 8.30; with `CCN(c1ccc([C@@H](COC)CC(=O)O)cc1Nc1ccc(C#N)cn1)C1CCOCC1` (single isomer, unassigned) [Example 352], over 7.30; with `CCN(c1ccc([C@@H](COC)CC(=O)O)cc1Nc1ccc(C#N)c(F)c1)C1CCOCC1` (single isomer, unassigned) [Example 353], over 8.30. Compound `CCN(c1ccc([C@@H](COC)CC(=O)O)cc1Nc1ccc(C#N)c(C)c1)C1CCOCC1` (single isomer, unassigned) [Example 354] had a negative-log IC50 (pIC50) of over 7.30.

Take `CCN(c1ccc([C@@H](COC)CC(=O)O)cc1Nc1ccc(C#N)cc1F)C1CCOCC1` (single isomer, unassigned) [Example 355]: the pIC50 is over 8.30. `CCN(c1ccc([C@@H](COC)CC(=O)O)cc1Nc1ccc(Cl)cn1)C1CCOCC1` (single isomer, unassigned) [Example 356]: the pIC50 is over 8.30.

With `CCN(c1ccc([C@@H](COC)CC(=O)O)cc1Nc1ncc(Cl)cn1)C1CCOCC1` (single isomer, unassigned) [Example 357], the pIC50 is over 7.30. In the case of `CCN(c1ccc([C@@H](COC)CC(=O)O)cc1Nc1ncc(F)cc1F)C1CCOCC1` (single isomer, unassigned) [Example 358], the pIC50 was over 7.30. The same measure for `CCN(c1ccc([C@@H](COC)CC(=O)O)cc1Nc1ncc(F)cn1)C1CCOCC1` (single isomer, unassigned) [Example 359]: under 7.30; for `CCN(c1ccc([C@@H](COC)CC(=O)O)cc1Nc1cccc(OC(F)(F)C(F)F)c1)C1CCOCC1` (single isomer, unassigned) [Example 360]: under 7.30; for `CCN(c1ccc([C@@H](COC)CC(=O)O)cc1Nc1ccc(Cl)cc1F)C1CCOCC1` (single isomer, unassigned) [Example 362]: over 8.30. Regarding `CCN(c1ccc([C@@H](COC)CC(=O)O)cc1Nc1ccc(F)cn1)C1CCOCC1` (single isomer, unassigned) [Example 363], the pIC50 was over 7.30. As for `CCN(c1ccc([C@@H](COC)CC(=O)O)cc1Nc1ccc(C(F)(F)F)cc1)C1CCOCC1` (single isomer, unassigned) [Example 364], the pIC50 is over 8.30.

As for `CCN(c1ccc([C@@H](COC)CC(=O)O)cc1Nc1ccc(F)cc1F)C1CCOCC1` (single isomer, unassigned) [Example 365], the pIC50 was over 7.30. The same measure for `CCN(c1ccc([C@@H](COC)CC(=O)O)cc1Nc1ccc(C#N)cc1C)C1CCOCC1` (single isomer, unassigned) [Example 367]: over 7.30.

The compound `CCN(c1ccc([C@@H](COC)CC(=O)O)cc1Nc1cccc(C#N)c1)C1CCOCC1` (single isomer, unassigned) [Example 368] had a pIC50 of over 7.30.

Take `CCN(c1ccc([C@@H](COC)CC(=O)O)cc1Nc1ccccc1C#N)C1CCOCC1` (single isomer, unassigned) [Example 369]: the pIC50 is under 7.30.

Consider `CCOc1cc(Nc2cc([C@@H](COC)CC(=O)O)ccc2N(CC)C2CCOCC2)ccc1C#N` (single isomer, unassigned) [Example 370], for which the pIC50 is over 7.30. With `CCN(c1ccc([C@@H](COC)CC(=O)O)cc1Nc1ccc(C#N)c(OCC(F)F)c1)C1CCOCC1` (single isomer, unassigned) [Example 371] the figure was over 7.30; with `CCN(c1ccc([C@@H](COC)CC(=O)O)cc1Nc1ccc(C#N)c(OCC(F)(F)F)c1)C1CCOCC1` (single isomer, unassigned) [Example 372], over 7.30. The same measure for `CCN(c1ccc([C@@H](COC)CC(=O)O)cc1Nc1ccc(C#N)c(Cl)c1)C1CCOCC1` (single isomer, unassigned) [Example 381]: over 7.30. In the case of `CCN(c1ccc([C@@H](COC)CC(=O)O)cc1Nc1ccc(C#N)c(C)n1)C1CCOCC1` (single isomer, unassigned) [Example 382], the pIC50 was over 7.30. `CCN(c1ccc([C@@H](COC)CC(=O)O)cc1Nc1ccc(C#N)c(C(F)(F)F)c1)C1CCOCC1` (single isomer, unassigned) [Example 383] gave a pIC50 of under 7.30. With `CCN(c1ccc([C@@H](COC)CC(=O)O)cc1Nc1cc(C)c(C#N)cn1)C1CCOCC1` (single isomer, unassigned) [Example 384] the figure was under 7.30; with `CCN(c1ccc([C@@H](COC)CC(=O)O)cc1Nc1ccc(C(N)=O)cc1)C1CCOCC1` (single isomer, unassigned) [Example 385], under 7.30.

Take `CCN(c1ccc([C@@H](COC)CC(=O)O)cc1Nc1ccc(S(=O)(=O)CC)cc1)C1CCOCC1` (single isomer, unassigned) [Example 386]: the negative logarithm of the IC50 (pIC50) was under 7.30. `CCN(c1ccc([C@@H](COC)CC(=O)O)cc1NC(=O)Nc1ccc(Cl)cc1F)C1CCOCC1` (single isomer, unassigned) [Example 423] had a negative-log IC50 (pIC50) of under 7.30.

In the case of `CCN(c1ccc([C@@H](COC)CC(=O)O)cc1NC(=O)Nc1ccc(Cl)cc1Cl)C1CCOCC1` (single isomer, unassigned) [Example 430], the pIC50 was over 7.30. With `CCN(c1ccc([C@@H](COC)CC(=O)O)cc1NC(=O)Nc1ccc(F)cc1F)C1CCOCC1` (single isomer, unassigned) [Example 431] the figure was under 7.30; with `CCN(c1ccc([C@H](COC)CC(=O)O)cc1NC(=O)Nc1ccc(Cl)cc1Cl)C1CCOCC1` (single isomer, unassigned) [Example 441], under 7.30. The same measure for `CCN(c1ccc([C@H](COC)CC(=O)O)cc1NC(=O)Nc1ccc(F)cc1F)C1CCOCC1` (single isomer, unassigned) [Example 442]: under 7.30; for `CCC(CC(=O)O)c1ccc(N2C[C@@H]3C[C@H]2CN3C(=O)OC(C)(C)C)c(Nc2ccc(C#N)cc2)c1` (single isomer, unassigned) [Example 443 Diastereomer 1]: over 8.30. The same measure for `CCC(CC(=O)O)c1ccc(N2C[C@@H]3C[C@H]2CN3C(=O)OC(C)(C)C)c(Nc2ccc(C#N)cc2)c1` (single isomer, unassigned) [Example 443 Diastereomer 2]: over 7.30; for `CCC(CC(=O)O)c1ccc(N2C[C@@H]3C[C@H]2CN3C(=O)OC(C)(C)C)c(Nc2ccccc2)c1` (single isomer, unassigned) [Example 444]: over 8.30; for `CCOc1ncc(Nc2cc(C(CC)CC(=O)O)ccc2N2C[C@@H]3C[C@H]2CN3C(=O)OC(C)(C)C)cn1` (single isomer, unassigned) [Example 448]: under 7.30.

Source of the values: patent publication US9790169B2, “IDO inhibitors” (BRISTOL-MYERS SQUIBB COMPANY, priority 2015, dated 2017).
